The target of one assay is NR2D (Homo sapiens, UniProt O15399). The assay is described as follows: Potentiation of [3H]MK-801 binding, wild-type NMDAR2D. The arrangement: species or system rat. On the procedure: (§1) Assays were conducted as described by Moskal et al., “GLYX-13: a monoclonal antibody-derived peptide that acts as an N-methyl-D-aspartate receptor modulator,” Neuropharmacology, 49, 1077-87, 2005. The potentiation of [^3H]MK-801 binding (5 nM; 22.5 Ci/mmol) to well washed rat cortical membranes (200 μg) was measured under non-equilibrium conditions (15 min @ 25° C.) in the presence of increasing concentrations of Compound AA or Compound BB.
(§2) FIG. 2A depicts the potentiation of [^3H]MK-801 binding for wild-type NMDAR2 subtypes in the presence of Compound AA. FIG. 2B depicts the potentiation of [^3H]MK-801 binding for wild-type NMDAR2 subtypes in the presence of Compound BB. The following table depicts the results (P means potency and A means activity): […]

The target of a further assay is NR2B (Homo sapiens, UniProt Q13224). The experiment in a line: Potentiation of [3H]MK-801 binding, wild-type NMDAR2B. The arrangement: species or system rat. On the procedure:
as §1, §2

A further assay has as its target NR2C (Homo sapiens, UniProt Q14957). The assay is described as follows: Potentiation of [3H]MK-801 binding, wild-type NMDAR2C. The arrangement: species or system rat. On the procedure:
as §1, §2

The subject of assay [1] is Sprague Dawley rats. The assay is described as follows: Bennett model of mechanical analgesia (paw withdrawal threshold). The class given is in vivo, rat. Particulars: 0.1-10 mg/kg PO; tested 1 h, 24 hrs and 1 week post-dosing. On the procedure: Bennett G J, Xie Y K, “A peripheral mononeuropathy in rat that produces disorders of pain sensation like those seen in man,” Pain 33:87-107, 1988. […] Vehicle animals receive the surgery and then receive vehicle rather than test compound. Animals were tested 1 hr, 24 h and 1 wk post-test compound or vehicle administration.
Male 2-3 month old Sprague Dawley rats were used. Harlan was the supplier for all studies. Rats were housed in Lucite cages with aspen wood chip bedding, maintained on a 12:12 light:dark cycle (lights on at 5 AM), and given ad libitum access to Purina lab chow (USA) and tap water throughout the study.
Rats were anesthetized using inhaled isoflurane (2.5%). Spared nerve injury surgery was performed as previously described (Bennett and Xie, 1988). An incision (˜1.5 cm in length) was made with a scalpel blade dorsally through skin on the right hindlimb, parallel and posterior to femur. Using a small pointed hemostat, the biceps femoris and gluteus superficialis muscles were separated. Using curved blunt forceps, the common sciatic nerve was isolated and exposed. For the mechanical analgesia studies, the whole sciatic nerve was ligated. Using hemostats/forceps and chromic gut (5-0), the nerve was loosely ligated with a square knot; 3 ligatures, 1 mm apart were placed on the nerve. […]

The test system of assay [2] is Sprague Dawley rats. The assay is described as follows: Porsolt forced swim test. In kind it is in vivo, rat. Particulars: 1-100 μg/kg PO, 1 h post-dosing. On the procedure: A non-clinical in vivo pharmacology study (Porsolt assay) was performed to measure antidepressant-like effects. A negative control (0.5% sodium carboxymethyl cellulose in 0.9% sterile saline vehicle) and a positive control (Compound C) were used to compare against Compound BB. The study allowed for the construction of a dose-response curve of the effects of each compound on the Porsolt forced swim test as assessed by the rats' response (reduced floating time) during a 5-minute swimming test.
Male 2-3 month old Sprague Dawley rats were used (Harlan, Indianapolis, Ind.). Rats were housed in Lucite cages with aspen wood chip bedding, maintained on a 12:12 light:dark cycle (lights on at 5 AM), and given ad libitum access to Purina lab chow (USA) and tap water throughout the study.
The Porsolt forced swim test adapted for use in rats was performed as described by Burgdorf et al., (The long-lasting antidepressant effects of rapastinel (GLYX-13) are associated with a metaplasticity process in the medial prefrontal cortex and hippocampus. Neuroscience 308:202-211, 2015). Animals were placed in a 46 cm tall×20 cm in diameter clear glass tube filled to 30 cm with tap water (23±1° C.) for 15 min on the first day (habituation) and 5 min on the subsequent test day. Animals were tested 1 h post-dosing with the compound BB, positive control (Compound C, 10 μg/kg), or vehicle (0.5% sodium carboxymethyl cellulose (Na-CMC) in 0.9% sterile saline). Water was changed after every other animal. Animals were videotaped, and floating time as defined as the minimal amount of effort required to keep the animals head above water was scored offline by a blinded experimenter with high inter-rater reliability (Pearson's r >0.9).
The maximally efficacious dose was defined as the lowest dose that was statistically different from vehicle but statistically equivalent (per Fisher's PLSD) to the higher doses. […]
Compound AA was assessed in a second set of animals at a single dose at 1 h post-administration and in a third set of animals at 24 h post-administration (FIG. 9B). […]

Where [3] appears, read: potentiation of [3H]MK-801 binding.

Where two headings read alike, the source gives them in different places.

Chain of NR2D (O15399 28-1336, species assumed, other chains not shown): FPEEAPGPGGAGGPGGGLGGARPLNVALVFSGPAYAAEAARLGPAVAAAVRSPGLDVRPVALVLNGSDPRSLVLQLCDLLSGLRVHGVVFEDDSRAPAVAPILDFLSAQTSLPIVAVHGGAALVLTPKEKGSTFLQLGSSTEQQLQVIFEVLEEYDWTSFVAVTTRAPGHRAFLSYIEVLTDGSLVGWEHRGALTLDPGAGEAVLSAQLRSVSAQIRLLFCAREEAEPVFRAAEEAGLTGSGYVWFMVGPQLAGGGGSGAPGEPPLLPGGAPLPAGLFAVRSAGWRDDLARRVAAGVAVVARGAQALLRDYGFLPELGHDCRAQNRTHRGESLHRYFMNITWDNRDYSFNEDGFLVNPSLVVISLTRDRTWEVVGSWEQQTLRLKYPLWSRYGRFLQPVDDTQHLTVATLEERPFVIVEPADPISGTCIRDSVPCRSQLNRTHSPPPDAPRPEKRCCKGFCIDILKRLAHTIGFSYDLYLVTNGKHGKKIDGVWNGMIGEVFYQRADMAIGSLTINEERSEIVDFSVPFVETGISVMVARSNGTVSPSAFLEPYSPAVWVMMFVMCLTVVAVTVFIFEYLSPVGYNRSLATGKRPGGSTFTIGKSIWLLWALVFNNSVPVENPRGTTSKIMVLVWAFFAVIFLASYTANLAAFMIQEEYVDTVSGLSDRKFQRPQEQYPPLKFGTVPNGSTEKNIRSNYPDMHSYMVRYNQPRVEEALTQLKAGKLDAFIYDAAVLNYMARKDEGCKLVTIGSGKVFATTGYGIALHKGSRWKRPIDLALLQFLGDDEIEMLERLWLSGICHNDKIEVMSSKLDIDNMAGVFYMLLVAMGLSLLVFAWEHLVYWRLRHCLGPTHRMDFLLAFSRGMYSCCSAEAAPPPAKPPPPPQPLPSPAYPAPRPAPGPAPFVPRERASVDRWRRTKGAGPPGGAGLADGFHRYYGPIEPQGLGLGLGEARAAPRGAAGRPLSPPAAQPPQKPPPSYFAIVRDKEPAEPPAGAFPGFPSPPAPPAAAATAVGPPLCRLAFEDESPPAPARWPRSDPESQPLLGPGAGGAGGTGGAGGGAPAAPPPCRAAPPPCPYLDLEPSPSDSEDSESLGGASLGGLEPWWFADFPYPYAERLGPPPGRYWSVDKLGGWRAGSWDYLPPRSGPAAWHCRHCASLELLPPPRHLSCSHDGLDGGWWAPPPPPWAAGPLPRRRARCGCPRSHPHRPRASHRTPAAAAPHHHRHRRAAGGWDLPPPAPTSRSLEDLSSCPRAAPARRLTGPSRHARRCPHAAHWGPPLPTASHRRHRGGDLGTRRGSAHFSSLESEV
Chain of NR2C (Q14957 20-1233, species assumed, other chains not shown): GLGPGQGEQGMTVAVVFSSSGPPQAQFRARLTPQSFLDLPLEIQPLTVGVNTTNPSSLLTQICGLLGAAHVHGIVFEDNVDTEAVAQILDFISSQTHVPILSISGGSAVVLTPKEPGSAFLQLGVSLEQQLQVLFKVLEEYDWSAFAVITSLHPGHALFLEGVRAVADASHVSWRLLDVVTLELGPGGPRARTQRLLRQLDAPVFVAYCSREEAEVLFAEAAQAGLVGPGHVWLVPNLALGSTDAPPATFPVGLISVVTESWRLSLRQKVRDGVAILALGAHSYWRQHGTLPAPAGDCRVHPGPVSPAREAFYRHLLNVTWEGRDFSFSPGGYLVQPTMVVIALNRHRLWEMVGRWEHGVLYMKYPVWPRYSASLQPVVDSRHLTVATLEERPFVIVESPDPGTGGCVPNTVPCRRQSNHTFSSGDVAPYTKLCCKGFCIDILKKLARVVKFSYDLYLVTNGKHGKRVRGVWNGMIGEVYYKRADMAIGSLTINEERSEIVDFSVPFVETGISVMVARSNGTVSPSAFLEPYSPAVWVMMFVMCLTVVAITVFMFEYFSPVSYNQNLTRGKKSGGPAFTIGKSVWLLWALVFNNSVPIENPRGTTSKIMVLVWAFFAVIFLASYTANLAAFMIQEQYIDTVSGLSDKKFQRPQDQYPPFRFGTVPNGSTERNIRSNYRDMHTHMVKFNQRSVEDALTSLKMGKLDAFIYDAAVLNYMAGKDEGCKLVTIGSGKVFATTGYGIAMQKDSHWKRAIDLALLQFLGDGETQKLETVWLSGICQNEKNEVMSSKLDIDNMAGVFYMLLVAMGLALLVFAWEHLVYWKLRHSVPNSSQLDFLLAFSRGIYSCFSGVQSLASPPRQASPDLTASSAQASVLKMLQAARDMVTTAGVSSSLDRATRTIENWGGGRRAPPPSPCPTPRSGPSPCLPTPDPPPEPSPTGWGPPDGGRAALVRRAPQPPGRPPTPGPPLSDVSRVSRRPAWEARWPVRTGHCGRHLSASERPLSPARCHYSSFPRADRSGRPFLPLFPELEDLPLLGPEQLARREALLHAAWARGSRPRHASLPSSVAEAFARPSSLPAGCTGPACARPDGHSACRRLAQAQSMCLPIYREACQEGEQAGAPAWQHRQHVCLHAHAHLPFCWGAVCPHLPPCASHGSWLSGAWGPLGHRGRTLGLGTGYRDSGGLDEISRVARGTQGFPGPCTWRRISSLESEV
Chain of NR2B (Q13224 27-1484, species assumed, other chains not shown): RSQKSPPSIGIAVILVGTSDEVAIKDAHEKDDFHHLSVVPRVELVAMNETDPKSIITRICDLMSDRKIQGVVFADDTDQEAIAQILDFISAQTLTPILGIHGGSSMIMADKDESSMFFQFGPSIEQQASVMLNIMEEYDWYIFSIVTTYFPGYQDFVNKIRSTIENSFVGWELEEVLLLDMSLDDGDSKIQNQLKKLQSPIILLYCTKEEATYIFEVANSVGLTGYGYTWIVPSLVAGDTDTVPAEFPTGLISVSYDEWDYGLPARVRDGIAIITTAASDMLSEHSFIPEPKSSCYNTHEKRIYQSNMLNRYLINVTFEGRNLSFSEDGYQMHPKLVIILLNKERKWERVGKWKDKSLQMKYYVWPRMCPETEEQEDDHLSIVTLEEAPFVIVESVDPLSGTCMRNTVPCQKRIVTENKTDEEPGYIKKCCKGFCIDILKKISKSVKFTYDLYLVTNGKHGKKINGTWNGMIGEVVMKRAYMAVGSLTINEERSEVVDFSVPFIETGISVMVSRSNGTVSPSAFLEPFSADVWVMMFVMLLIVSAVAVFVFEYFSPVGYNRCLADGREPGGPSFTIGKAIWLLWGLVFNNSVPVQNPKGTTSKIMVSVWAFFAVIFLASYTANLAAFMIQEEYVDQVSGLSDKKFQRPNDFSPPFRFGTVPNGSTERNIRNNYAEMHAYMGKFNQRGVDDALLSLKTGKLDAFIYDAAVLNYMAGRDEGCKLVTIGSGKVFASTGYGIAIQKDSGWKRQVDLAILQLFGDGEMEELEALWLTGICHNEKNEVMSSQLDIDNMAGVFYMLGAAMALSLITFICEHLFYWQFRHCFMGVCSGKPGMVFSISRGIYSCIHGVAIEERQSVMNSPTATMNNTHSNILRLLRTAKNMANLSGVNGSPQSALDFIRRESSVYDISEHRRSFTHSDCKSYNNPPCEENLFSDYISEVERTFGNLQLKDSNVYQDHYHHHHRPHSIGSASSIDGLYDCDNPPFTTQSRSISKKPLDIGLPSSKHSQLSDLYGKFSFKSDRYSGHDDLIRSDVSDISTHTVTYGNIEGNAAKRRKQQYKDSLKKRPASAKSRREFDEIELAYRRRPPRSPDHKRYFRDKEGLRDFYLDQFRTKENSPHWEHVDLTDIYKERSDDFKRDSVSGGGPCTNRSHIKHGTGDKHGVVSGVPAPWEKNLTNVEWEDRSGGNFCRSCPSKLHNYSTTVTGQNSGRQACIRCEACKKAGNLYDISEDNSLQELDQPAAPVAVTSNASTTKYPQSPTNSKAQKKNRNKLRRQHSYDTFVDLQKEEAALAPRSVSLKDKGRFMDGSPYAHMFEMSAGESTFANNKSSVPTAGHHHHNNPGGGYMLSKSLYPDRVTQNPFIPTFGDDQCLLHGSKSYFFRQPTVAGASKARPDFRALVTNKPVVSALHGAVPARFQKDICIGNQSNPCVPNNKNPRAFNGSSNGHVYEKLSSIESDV

With `C[C@@H](O)[C@@H](C(N)=O)N1C[C@@]2(CCCN2S(C)(=O)=O)C1=O` [Compound BB, (2S,3R)-3-hydroxy-2-((S)-5-(methylsulfonyl)-1-oxo-2,5-diazaspiro[3,4]octan-2-yl)butanamide], the “NR2D A (%) (activity)” value on NR2D (setting [3]) worked out at 57.41%. Moreover, the EC50 on NR2D (potentiation of [3H]MK-801 binding, 0 = no activity, read-out: NR2D P (M) (potency) (converted)) is 5.62e-11 M; on NR2D (wild-type NMDAR2D, read-out: NMDAR2D BINDING PROFILE −logEC50 (converted)), 5.62e-11 M. In addition, the “NMDAR2D BINDING PROFILE % 1 mM Glycine” value on NR2D (relative to 1 mM glycine) was 57.41%. Further, on NR2D (statement in description), the “binding to NR2D (in words)” value is given as “binds”. The “NMDAR2D BINDING PROFILE Conclusion” value at NR2D (wild-type NMDAR2D) is given as “WT2D agonist”. In addition, at NR2B (setting [3]), the “NR2B A (%) (activity)” value worked out at 76.3%. Besides, the “NMDAR2B BINDING PROFILE % 1 mM Glycine” value on NR2B (relative to 1 mM glycine) is 76.3%. For the same compound, the “binding to NR2B (in words)” value on NR2B (statement in description) is on record as “binds”. In addition, the “NMDAR2B BINDING PROFILE Conclusion” value on NR2B (wild-type NMDAR2B) is “WT2B agonist”. For the same compound, the “NR2C A (%) (activity)” value on NR2C (setting [3]) came out at 0%. For the same compound, on NR2C (relative to 1 mM glycine), the “NMDAR2C BINDING PROFILE % 1 mM Glycine” value stood at 0%. For the same compound, at NR2C (statement in description), the “binding to NR2C (in words)” value was “substantially no binding”. For the same compound, the “NMDAR2C BINDING PROFILE Conclusion” value on NR2C (wild-type NMDAR2C) is on record as “WT2C no”. In addition, the “analgesic effects (paw withdrawal threshold)” value with Sprague Dawley rats [1] is “analgesic effects”. The “floating time in the Porsolt test” value with Sprague Dawley rats [2] is given as “produces an antidepressant-like effect as measured by decreased floating time”.

These data come from US10195179B2, “Spiro-lactam NMDA receptor modulators and uses thereof” (Aptinyx Inc., priority 2016, dated 2019).
